These results are taken from US8460274B2, “Long term drug delivery devices with polyurethane-based polymers and their manufacture” (Endo Pharmaceuticals Solutions Inc., priority 2008, dated 2013).

“And” between values parts separate entries of the source, which are not always exact repeats. Identical values can stand only once.

The nature of series [1]: Release rates of active agents from Tecophilic, Tecoflex and Carbothane polyurethane implants (Example 6). It counts as physicochemical.
From the text: The release rates have been normalized to surface area of the implant, thereby adjusting for slight differences in the size of the various implantable devices. The active agents were selected to cover a range of solubilities (as indicated by the varying Log P values; for the purposes of the data provided, a Log P value of greater than about 2.0 is considered to be not readily soluble in aqueous solution) and molecular weights. The polyurethanes were selected to have varying affinities for water soluble active agents and varying flexibility (as indicated by the variation in flex modulus).
The conditions of series [2]: cited from earlier work.
The nature of series [3]: In vitro elution of naltrexone from Tecophilic HP-60D-35 polyurethane implants (Example 2). Format: physicochemical. The settings on record: HP-60D-35 implants -1, -2, -3, in vitro. On the procedure:
HP-60D-35 is extruded to tubes with thickness of 0.30 mm with inside diameter of 1.75 mm. The tubes are then cut into 32 mm in length. One side of the tube is sealed with heat using a heat sealer. The sealing time is less than one minute. Six pellets of naltrexone are loaded into the tubes and both open sides of the tubes are sealed with heat. Each pellet weighs approximately 15.0 mg for a total of 91 mg. The second end open of the tube is sealed with heat in the same way as for the first end. The loaded implant is then conditioned and primed. The conditioning takes place at room temperature in a 0.9% saline solution for one week. Upon completion of the conditioning, the implant undergoes priming. The priming takes place at room temperatures in a 1.8% saline solution for one week. Each implant is tested in vitro in a medium selected to mimic the pH found in the human body. The temperature of the selected medium was kept at approximately 37° C. during the testing. The release rates are shown on FIG. 5 and Table 3.

For series [4] the following is noted: subcutaneous implants, end of the third month.
Series [5] can be described thus: In vitro elution of histrelin from Tecophilic HP-60D-20 polyurethane implant (Example 1). It counts as physicochemical. The following applies: HP-60D-20 implant. An excerpt: HP-60D-20 is extruded to tubes with thickness of 0.30 mm with inside diameter of 1.75 mm. The tubes are then cut into 25 mm in length. One side of the tube is sealed with heat using a heat sealer. The sealing time is less than one minute. Four pellets of histrelin acetate are loaded into the tube. […] Each pellet is comprised of a mixture of 98% histrelin and 2% stearic acid. The second end open of the tube is sealed with heat in the same way as for the first end. The loaded implant is then conditioned and primed. The conditioning takes place at room temperature in a 0.9% saline solution for one day. Upon completion of the conditioning, the implant undergoes priming. The priming takes place at room temperatures in a 1.8% saline solution for one day. Each implant is tested in vitro in a medium selected to mimic the pH found in the human body. The temperature of the selected medium was kept at approximately 37° C. during the testing. The release rates are shown on FIG. 4 and Table 2.

The conditions of series [6]: cited from earlier work. The source holds these as a separate data set.
Where [7] appears, read: Carbothane PC-3595A, F.M.: 4,500.

Consider `Cc1ccccc1N1C(=O)c2cc(S(N)(=O)=O)c(Cl)cc2NC1C` (stereo not drawn) [Metolazone], for which the non-normalized release rate in series [1] (Carbothane PC-3575A, F.M.: 620) came to 20 µg/day; in series [1] (setting [7]), 6.1 µg/day; in series [1] (Tecoflex EG 100A, F.M.: 10,000) it was 5.5 µg/day; in series [1] (Tecoflex EG-85A, F.M.: 2,300) it was 77 µg/day; in series [1] (Tecophilic HP-60D-20, 15% EWC) it was 124 µg/day. Besides, the “release rate normalized to surface area of the implant” value (“release rate normalized” below) in series [1] (Carbothane PC-3575A, F.M.: 620) amounted to 8.4 μg/day/cm^2; in series [1] (setting [7]) it was 2.6 μg/day/cm^2; in series [1] (Tecoflex EG 100A, F.M.: 10,000), 2.3 μg/day/cm^2; in series [1] (Tecoflex EG-85A, F.M.: 2,300), 32 μg/day/cm^2; in series [1] (Tecophilic HP-60D-20, 15% EWC) it was 50 μg/day/cm^2. Moreover, in series [2], the “Log P” value is listed as “Log P = 2.50”.
Turning to `O=C1CC[C@@]2(O)[C@H]3Cc4ccc(O)c5c4[C@@]2(CCN3CC2CC2)[C@H]1O5` [Naltrexone Base], the “Naltrexone Elution Rates” value in series [3] (week 1 of release) was 1529.26 µg/day and 767.38 µg/day and 1400.95 µg/day; in series [3] (week 2 of release) it was 1511.77 µg/day and 1280.03 µg/day and 1498.86 µg/day; in series [3] (week 3 of release), 1456.01 µg/day and 1635.97 µg/day and 1449.49 µg/day; in series [3] (week 4 of release), 1378.27 µg/day and 1607.13 µg/day and 1500.42 µg/day; in series [3] (week 5 of release) it was 1393.05 µg/day and 1614.52 µg/day and 1558.37 µg/day; in series [3] (week 6 of release) it was 1321.71 µg/day and 1550.39 µg/day and 1436.03 µg/day. The “Naltrexone Elution Rates” value in series [3] (week 7 of release) is 1273.07 µg/day and 1424.24 µg/day and 1300.73 µg/day; in series [3] (week 8 of release), 1172.82 µg/day and 1246.48 µg/day and 1221.57 µg/day. Also, the non-normalized release rate in series [1] (setting [7]) came out at 25 µg/day; in series [1] (Tecoflex EG 100A, F.M.: 10,000), 55 µg/day; in series [1] (Tecophilic HP-60D-05, 5.5% EWC) it was 50 µg/day; in series [1] (Tecophilic HP-60D-10, 8.7% EWC), 500 µg/day; in series [1] (Tecophilic HP-60D-20, 15% EWC) it was 1000 µg/day; in series [1] (Tecophilic HP-60D-35, 24% EWC), 1500 µg/day. This compound gave a non-normalized release rate in series [1] (Tecophilic HP-60D-60, 31% EWC) of 2200 µg/day. The “release rate normalized” value came to 5.5 μg/day/cm^2 in series [1] (setting [7]); 23 μg/day/cm^2 in series [1] (Tecoflex EG 100A, F.M.: 10,000); 12.7 μg/day/cm^2 in series [1] (Tecophilic HP-60D-05, 5.5% EWC); 127 μg/day/cm^2 in series [1] (Tecophilic HP-60D-10, 8.7% EWC); 263 μg/day/cm^2 in series [1] (Tecophilic HP-60D-20, 15% EWC); 704 μg/day/cm^2 in series [1] (Tecophilic HP-60D-35, 24% EWC). Also, the “release rate normalized” value in series [1] (Tecophilic HP-60D-60, 31% EWC) is reported as 883 μg/day/cm^2. Further, the “Log P” value in series [2] is “Log P = 2.07”.
For the compound `Cc1nc2n(c(=O)c1CCN1CCC(c3noc4cc(F)ccc34)CC1)CCCC2` [Risperidone], the non-normalized release rate in series [1] (Carbothane PC-3575A, F.M.: 620) amounted to 40 µg/day; in series [1] (setting [7]), 11 µg/day; in series [1] (Tecoflex EG 100A, F.M.: 10,000) it was 8 µg/day; in series [1] (Tecoflex EG-65D, F.M.: 37,000) it was 2 µg/day; in series [1] (Tecoflex EG-85A, F.M.: 2,300), 150 µg/day; in series [1] (Tecophilic HP-60D-20, 15% EWC), 150 µg/day. Moreover, the “risperidone level in the dog plasma” value in series [4] was “still present at a high level”. For the same compound, the “Log P” value in series [2] is “Log P = 3.28”.
Take `CCNC(=O)[C@@H]1CCCN1C(=O)[C@H](CCCNC(=N)N)NC(=O)[C@H](CC(C)C)NC(=O)[C@@H](Cc1cn(Cc2ccccc2)cn1)NC(=O)[C@H](Cc1ccc(O)cc1)NC(=O)[C@H](CO)NC(=O)[C@H](Cc1c[nH]c2ccccc12)NC(=O)[C@H](Cc1cnc[nH]1)NC(=O)[C@@H]1CCC(=O)N1` [Histrelin Acetate]: the “Histrelin Elution Rates” value in series [5] (week 1 of elution) is 451.733 µg/day; in series [5] (week 2 of elution), 582.666 µg/day; in series [5] (week 3 of elution), 395.9 µg/day; in series [5] (week 4 of elution) it was 310.29 µg/day; in series [5] (week 5 of elution) it was 264.92 µg/day; in series [5] (week 6 of elution), 247.17 µg/day. In addition, the “Histrelin Elution Rates” value was found to be 215.93 µg/day in series [5] (week 7 of elution); 201.78 µg/day in series [5] (week 8 of elution); 183.22 µg/day in series [5] (week 9 of elution); 174.99 µg/day in series [5] (week 10 of elution); 167.72 µg/day in series [5] (week 11 of elution); 158.37 µg/day in series [5] (week 12 of elution). The “Histrelin Elution Rates” value amounted to 153.95 µg/day in series [5] (week 13 of elution); 146.46 µg/day in series [5] (week 14 of elution); 139.83 µg/day in series [5] (week 15 of elution); 129.6 µg/day in series [5] (week 16 of elution); 124.46 µg/day in series [5] (week 17 of elution); 118.12 µg/day in series [5] (week 18 of elution). Also, the “Histrelin Elution Rates” value in series [5] (week 19 of elution) came to 120.35 µg/day. Moreover, the non-normalized release rate amounted to 0.4 µg/day in series [1] (setting [7]); 0.5 µg/day in series [1] (Tecoflex EG 100A, F.M.: 10,000); 150 µg/day in series [1] (Tecophilic HP-60D-20, 15% EWC); 400 µg/day in series [1] (Tecophilic HP-60D-35, 24% EWC); 500 µg/day in series [1] (Tecophilic HP-60D-60, 31% EWC). Further, the “release rate normalized” value in series [1] (setting [7]) was 0.2 μg/day/cm^2; in series [1] (Tecoflex EG 100A, F.M.: 10,000), 0.3 μg/day/cm^2; in series [1] (Tecophilic HP-60D-20, 15% EWC), 93 μg/day/cm^2; in series [1] (Tecophilic HP-60D-35, 24% EWC), 248 μg/day/cm^2; in series [1] (Tecophilic HP-60D-60, 31% EWC) it was 309 μg/day/cm^2.
On to `Clc1cccc(Cl)c1N=C1NCCN1` [Clonidine Base], for which the non-normalized release rate in series [1] (Carbothane PC-3575A, F.M.: 620) turned out to be 400 µg/day; in series [1] (setting [7]), 270 µg/day; in series [1] (Tecoflex EG 100A, F.M.: 10,000), 175 µg/day; in series [1] (Tecoflex EG-65D, F.M.: 37,000), 50 µg/day; in series [1] (Tecoflex EG-85A, F.M.: 2,300) it was 2000 µg/day; in series [1] (Tecophilic HP-60D-20, 15% EWC) it was 2000 µg/day. Also, the “release rate normalized” value in series [1] (Carbothane PC-3575A, F.M.: 620) was 202 μg/day/cm^2; in series [1] (setting [7]), 136 μg/day/cm^2; in series [1] (Tecoflex EG 100A, F.M.: 10,000) it was 88 μg/day/cm^2; in series [1] (Tecoflex EG-65D, F.M.: 37,000) it was 25 μg/day/cm^2; in series [1] (Tecoflex EG-85A, F.M.: 2,300) it was 1053 μg/day/cm^2; in series [1] (Tecophilic HP-60D-20, 15% EWC) it was 1011 μg/day/cm^2. Moreover, the “Log P” value in series [2] is “Log P = 2.56”.
As to `C[C@@H](O)[C@@H]1NC(=O)[C@H](CCCCN)NC(=O)[C@@H](Cc2c[nH]c3ccccc23)NC(=O)[C@H](Cc2ccccc2)NC(=O)[C@@H](NC(=O)[C@H](N)Cc2ccccc2)CSSC[C@@H](C(=O)N[C@H](CO)[C@@H](C)O)NC1=O` [Octreotide Acetate], the non-normalized release rate in series [1] (Tecoflex EG-85A, F.M.: 2,300) turned out to be 30 µg/day; in series [1] (Tecophilic HP-60D-05, 5.5% EWC) it was 0 µg/day; in series [1] (Tecophilic HP-60D-10, 8.7% EWC) it was 25 µg/day; in series [1] (Tecophilic HP-60D-20, 15% EWC), 1500 µg/day; in series [1] (Tecophilic HP-60D-35, 24% EWC), 4000 µg/day. Further, the “release rate normalized” value in series [1] (Tecoflex EG-85A, F.M.: 2,300) is listed as 16 μg/day/cm^2; in series [1] (Tecophilic HP-60D-05, 5.5% EWC), 0 μg/day/cm^2; in series [1] (Tecophilic HP-60D-10, 8.7% EWC) it was 11 μg/day/cm^2; in series [1] (Tecophilic HP-60D-20, 15% EWC) it was 758 μg/day/cm^2; in series [1] (Tecophilic HP-60D-35, 24% EWC), 2022 μg/day/cm^2. For the same compound, the “Relative Water Solubility” value in series [6] is reported as “Very soluble,”.
For the compound `C[C@@H]1C[C@H]2[C@@H]3CCC4=CC(=O)C=C[C@]4(C)[C@@]3(F)[C@@H](O)C[C@]2(C)[C@@]1(O)C(=O)CO` [Dexamethasone], the “Log P” value in series [2] is reported as “Log P = 1.93”.
